According to publication PMC3746001 (ACS chemical biology, 2013):
“And” between values parts separate entries of the source, which are not always exact repeats. Equal entries are not always repeated.

How the values were obtained:
[1] = molecular target: T1, hetero-dimeric hpol γ (Homo sapiens, UniProt P54098); test: Fluorescence-based polymerase assay, hpol γ; type: biochemical; settings: read-out: IC50 for inhibition of hpol γ; 10 nM hpol γ, 50 nM DNA; mean ± standard deviation
T1 sequence (P54098 1-1239): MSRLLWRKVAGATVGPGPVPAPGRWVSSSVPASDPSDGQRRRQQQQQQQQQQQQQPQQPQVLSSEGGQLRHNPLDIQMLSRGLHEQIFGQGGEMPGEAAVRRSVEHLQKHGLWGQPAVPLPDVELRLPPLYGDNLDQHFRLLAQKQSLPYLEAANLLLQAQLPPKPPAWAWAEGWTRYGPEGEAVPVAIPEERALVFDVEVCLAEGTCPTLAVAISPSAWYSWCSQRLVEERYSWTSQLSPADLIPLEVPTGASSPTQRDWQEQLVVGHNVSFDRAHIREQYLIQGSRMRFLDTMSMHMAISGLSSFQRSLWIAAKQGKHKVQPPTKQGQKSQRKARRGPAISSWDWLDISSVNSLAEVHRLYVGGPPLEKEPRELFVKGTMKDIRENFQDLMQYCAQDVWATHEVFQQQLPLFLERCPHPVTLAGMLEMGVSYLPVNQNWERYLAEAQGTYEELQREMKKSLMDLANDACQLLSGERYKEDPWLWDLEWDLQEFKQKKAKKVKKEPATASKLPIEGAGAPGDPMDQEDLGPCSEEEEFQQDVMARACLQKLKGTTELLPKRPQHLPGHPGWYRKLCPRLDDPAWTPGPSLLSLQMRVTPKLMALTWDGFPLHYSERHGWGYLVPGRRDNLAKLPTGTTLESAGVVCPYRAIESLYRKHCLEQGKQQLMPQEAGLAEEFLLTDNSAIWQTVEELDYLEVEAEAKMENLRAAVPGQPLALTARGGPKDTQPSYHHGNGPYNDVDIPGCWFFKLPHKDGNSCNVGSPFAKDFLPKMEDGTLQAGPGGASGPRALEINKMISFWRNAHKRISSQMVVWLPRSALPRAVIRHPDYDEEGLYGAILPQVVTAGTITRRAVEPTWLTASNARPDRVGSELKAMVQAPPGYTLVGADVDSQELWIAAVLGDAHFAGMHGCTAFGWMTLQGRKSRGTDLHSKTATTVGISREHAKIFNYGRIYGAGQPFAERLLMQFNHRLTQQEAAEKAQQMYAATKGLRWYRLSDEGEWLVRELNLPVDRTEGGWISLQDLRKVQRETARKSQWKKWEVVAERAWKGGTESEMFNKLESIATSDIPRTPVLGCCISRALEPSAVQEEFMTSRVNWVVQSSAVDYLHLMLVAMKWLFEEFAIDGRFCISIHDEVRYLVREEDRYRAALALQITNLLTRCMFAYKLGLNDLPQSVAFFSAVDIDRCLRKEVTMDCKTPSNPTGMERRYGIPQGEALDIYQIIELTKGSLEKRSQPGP
T1 sequence (Q9UHN1 26-485 partner limits assumed): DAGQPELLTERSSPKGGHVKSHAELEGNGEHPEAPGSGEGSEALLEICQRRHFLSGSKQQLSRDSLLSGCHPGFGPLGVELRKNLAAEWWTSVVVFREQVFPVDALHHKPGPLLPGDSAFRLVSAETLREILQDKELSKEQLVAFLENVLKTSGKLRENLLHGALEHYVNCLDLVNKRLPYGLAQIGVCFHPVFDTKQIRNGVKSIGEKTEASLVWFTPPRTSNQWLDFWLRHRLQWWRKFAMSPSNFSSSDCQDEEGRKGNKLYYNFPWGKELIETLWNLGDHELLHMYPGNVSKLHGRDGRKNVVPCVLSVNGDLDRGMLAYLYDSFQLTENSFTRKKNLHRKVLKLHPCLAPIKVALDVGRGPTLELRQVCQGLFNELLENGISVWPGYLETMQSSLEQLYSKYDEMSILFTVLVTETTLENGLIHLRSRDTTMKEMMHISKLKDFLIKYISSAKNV

[2] = molecular target: T2, human Y-family DNA polymerase kappa (hpol κ) (Homo sapiens, UniProt Q9UBT6); test: Fluorescence-based polymerase assay, hpol κ; type: biochemical; settings: read-out: IC50 for inhibition of hpol κ; 3 nM hpol κ, 60 nM DNA; mean ± standard deviation
T2 sequence (Q9UBT6 19-526): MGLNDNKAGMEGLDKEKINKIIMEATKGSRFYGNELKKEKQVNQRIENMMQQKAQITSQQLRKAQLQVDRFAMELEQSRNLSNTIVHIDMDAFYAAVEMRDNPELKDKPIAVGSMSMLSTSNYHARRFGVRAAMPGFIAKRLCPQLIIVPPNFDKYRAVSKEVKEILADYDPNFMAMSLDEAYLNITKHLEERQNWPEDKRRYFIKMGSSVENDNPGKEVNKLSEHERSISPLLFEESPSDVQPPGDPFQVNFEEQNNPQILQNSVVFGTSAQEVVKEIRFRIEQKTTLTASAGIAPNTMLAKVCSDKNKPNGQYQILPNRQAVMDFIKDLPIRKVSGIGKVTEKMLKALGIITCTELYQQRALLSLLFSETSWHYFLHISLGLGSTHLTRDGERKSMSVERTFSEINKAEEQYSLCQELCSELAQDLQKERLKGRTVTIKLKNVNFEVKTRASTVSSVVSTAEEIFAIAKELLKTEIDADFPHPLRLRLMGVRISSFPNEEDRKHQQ

[3] = molecular target: T3, human DNA polymerase eta (hpol η) (Homo sapiens, UniProt Q9Y253); test: Fluorescence-based polymerase strand-displacement assay, hpol η; type: biochemical; settings: for IC50: read-out: IC50 for inhibition of hpol η, 10 nM hpol η, 50 nM DNA, 0.1 mM dTTP, mean ± standard deviation, triplicate
T3 sequence (Q9Y253 1-437): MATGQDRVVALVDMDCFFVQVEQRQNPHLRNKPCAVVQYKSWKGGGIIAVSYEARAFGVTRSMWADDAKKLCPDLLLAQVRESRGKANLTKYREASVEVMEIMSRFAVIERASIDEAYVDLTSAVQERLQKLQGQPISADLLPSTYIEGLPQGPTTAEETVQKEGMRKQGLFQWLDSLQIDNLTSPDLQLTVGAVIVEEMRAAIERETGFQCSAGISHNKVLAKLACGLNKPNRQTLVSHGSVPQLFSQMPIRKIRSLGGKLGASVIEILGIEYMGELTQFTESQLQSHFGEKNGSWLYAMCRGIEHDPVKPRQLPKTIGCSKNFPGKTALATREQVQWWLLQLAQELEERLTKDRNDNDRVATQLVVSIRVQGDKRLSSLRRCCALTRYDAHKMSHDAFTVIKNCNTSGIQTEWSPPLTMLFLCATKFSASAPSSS

[4] = test system: human tumor cell lines; settings: cited from earlier work
[5] = test system: hpol η; settings: cited from earlier work
[6] = molecular target: T4, hpol ι (Homo sapiens, UniProt Q9UNA4); settings: cited from earlier work
T4 sequence (Q9UNA4 26-446): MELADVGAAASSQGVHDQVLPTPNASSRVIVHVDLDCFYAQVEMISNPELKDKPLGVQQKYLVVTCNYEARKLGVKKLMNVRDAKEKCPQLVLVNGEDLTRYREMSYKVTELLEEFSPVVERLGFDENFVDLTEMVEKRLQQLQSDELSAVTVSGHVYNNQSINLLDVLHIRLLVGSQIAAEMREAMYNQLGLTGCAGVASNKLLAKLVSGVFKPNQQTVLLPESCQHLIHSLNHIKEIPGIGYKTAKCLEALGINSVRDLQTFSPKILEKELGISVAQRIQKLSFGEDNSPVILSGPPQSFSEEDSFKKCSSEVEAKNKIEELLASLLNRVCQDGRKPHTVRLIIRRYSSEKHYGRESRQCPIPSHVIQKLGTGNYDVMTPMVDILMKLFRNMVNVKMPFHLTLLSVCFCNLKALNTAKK

[7] = test system: hpol β; settings: cited from earlier work

## O=C1NC(=S)NC(=O)C1=Cc1cn(C(=O)c2cccc3ccccc23)c2ccc(Cl)cc12 [ITBA-16]
[1]
  IC50: 35.3 ± 2.9 µM
[2]
  IC50: 32.9 ± 3.2 µM
[3]; hpol η versus seven other polymerases
  Fold by which IC50 for hpol η is lower than any of the other pols tested: over 2 fold
[3]
  IC50: 16 µM and 15.8 µM

## O=C1NC(=S)NC(=O)C1=Cc1cn(C(=O)c2cccc3ccccc23)c2ccc(Cl)cc12 [ITBA-17]
[4]
  Anti-proliferative and cytotoxic properties: potent anti-proliferative and cytotoxic properties

## O=C1NC(=S)NC(=O)C1=Cc1cn(C(=O)c2ccc3ccccc3c2)c2ccccc12 [ITBA-18]
[3]; 50 μM compound, relative to DMSO control (Figure 4C)
  Inhibition of hpol η activity (percent activity relative to control), in words: roughly equal activity against hpol η
[3]
  IC50: 67.8 ± 3.3 µM

## CC(C)c1ccc2c(c1)c(SC(C)(C)C)c(CC(C)(C)C(=O)O)n2Cc1ccc(Cl)cc1 [MK886]
[5]; read-out: IC50 for inhibition of hpol η
  IC50: ~46 µM
[6]; hpol ι versus other Y-family pols
  Inhibition of hpol ι relative to other Y-family pols: five- to eight-times more effectively
[6]; read-out: IC50 for inhibition of hpol ι
  IC50: 9 µM

## O=C(O)C1=CC(=C(c2ccc(O)c(C(=O)O)c2)c2ccc(O)c(C(=O)O)c2)C=CC1=O [aurintricarboxylic acid]
[7]
  IC50 for inhibition of hpol β: sub-micromolar
  Specificity against hpol β: greater than 2 fold
[5]
  IC50 for inhibition of hpol η: sub-micromolar
[6]
  IC50 for inhibition of hpol ι: sub-micromolar

## O=c1oc2c(O)c(O)cc3c(=O)oc4c(O)c(O)cc1c4c23 [ellagic acid]
[7]
  IC50 for inhibition of hpol β: sub-micromolar
  Specificity against hpol β: greater than 2 fold
[5]
  IC50 for inhibition of hpol η: sub-micromolar
[6]
  IC50 for inhibition of hpol ι: sub-micromolar
